# According to patent US12077503B2, “Substituted cyclic amides and their use as herbicides” (FMC CORPORATION, priority 2015, dated 2024):
# What was measured:
# Test in all cases: Test D preemergence
# Format in all cases: in vivo
# Settings in all cases: scale 0 to 100
# [1] = system: barley, winter (winter barley Hordeum vulgare)
# From the text: (§1) Seeds of plant species selected from bluegrass (annual bluegrass, Poa annua), blackgrass (Alopecurus myosuroides), canarygrass (littleseed canarygrass, Phalaris minor), chickweed (common chickweed, Stellaria media), Galium (catchweed bedstraw, Galium aparine), bromegrass, downy (downy bromegrass, Bromus tectorum), field poppy (Papaver rhoeas), field violet (Viola arvensis), foxtail, green (green foxtail, Setaria viridis), deadnettle (henbit deadnettle, Lamium amplexicaule), ryegrass, Italian (Italian ryegrass, Lolium multiflorum), Kochia (Kochia scoparia), lambsquarters (Chenopodium album), oilseed rape (Brassica napus), pigweed (Amaranthus retroflexus), chamomile (scentless chamomile, Matricaria inodora), Russian thistle (Salsola kali), speedwell (bird's-eye speedwell, Veronica persica), barley, spring (spring barley, Hordeum vulgare), wheat, spring (spring wheat, Triticum aestivum), buckwheat, wild (wild buckwheat, Polygonum convolvulus), mustard, wild (wild mustard, Sinapis arvensis), oat, wild (wild oat, Avena fatua), radish, wild (wild radish, Raphanus raphanistrum), windgrass (Apera spica-venti), barley, winter (winter barley Hordeum vulgare), and wheat, winter (winter wheat, Triticum aestivum) were planted into a silt loam soil and treated preemergence with test chemicals formulated in a non-phytotoxic solvent mixture which included a surfactant.
# (§2) Treated plants and controls were maintained in a controlled growth environment approximately 21 d after which time all species were compared to controls and visually evaluated. Plant response ratings, summarized in Table D, are based on a scale of 0 to 100 where 0 is no effect and 100 is complete control. A dash (-) response means no test result.
# [2] = system: windgrass (Apera spica-venti)
# From the text: as §1, §2
# [3] = system: Russian thistle (Salsola kali)
# From the text: as §1, §2
# [4] = system: bluegrass (annual bluegrass, Poa annua)
# From the text: as §1, §2
# [5] = system: foxtail, green (green foxtail, Setaria viridis)
# From the text: as §1, §2
# [6] = system: chickweed (common chickweed, Stellaria media)
# From the text: as §1, §2
# [7] = system: wheat, winter (winter wheat, Triticum aestivum)
# From the text: as §1, §2
# [8] = system: oat, wild (wild oat, Avena fatua)
# From the text: as §1, §2
# [9] = system: mustard, wild (wild mustard, Sinapis arvensis)
# From the text: as §1, §2
# [10] = system: chamomile (scentless chamomile, Matricaria inodora)
# From the text: as §1, §2
# [11] = system: field poppy (Papaver rhoeas)
# From the text: as §1, §2
# [12] = system: Galium (catchweed bedstraw, Galium aparine)
# From the text: as §1, §2
# [13] = system: speedwell (bird's-eye speedwell, Veronica persica)
# From the text: as §1, §2
# [14] = system: canarygrass (littleseed canarygrass, Phalaris minor)
# From the text: as §1, §2
# [15] = system: deadnettle (henbit deadnettle, Lamium amplexicaule)
# From the text: as §1, §2
# [16] = system: ryegrass, Italian (Italian ryegrass, Lolium multiflorum)
# From the text: as §1, §2
# [17] = system: lambsquarters (Chenopodium album)
# From the text: as §1, §2
# Kochia (Kochia scoparia) = system: Kochia (Kochia scoparia)
# From the text: as §1, §2
# [18] = system: buckwheat, wild (wild buckwheat, Polygonum convolvulus)
# From the text: as §1, §2
# [19] = system: oilseed rape (Brassica napus)
# From the text: as §1, §2
# [20] = system: bromegrass, downy (downy bromegrass, Bromus tectorum)
# From the text: as §1, §2
# [21] = system: radish, wild (wild radish, Raphanus raphanistrum)
# From the text: as §1, §2
smiles,measurement,setting,value
"CN1C[C@H](c2ccc(C(F)(F)F)cc2)[C@@H](C(=O)Nc2cccc(F)c2F)C1=O [Compound 623, (3S,4S)—N-(2,3-difluorophenyl)-1-methyl-2-oxo-4-[4-(trifluoromethyl)phenyl]-3-pyrrolidinecarboxamide]","Plant response rating: Barley, Winter",[1]; 31 g ai/ha,5
same,"Plant response rating: Barley, Winter",[1]; 62 g ai/ha,10
same,"Plant response rating: Barley, Winter",[1]; 125 g ai/ha,40
same,"Plant response rating: Barley, Winter",[1]; 250 g ai/ha,65
same,Plant response rating: Windgrass,[2]; 31 g ai/ha,85
same,Plant response rating: Windgrass,[2]; 62 g ai/ha,90
same,Plant response rating: Windgrass,[2]; 125 g ai/ha,95
same,Plant response rating: Windgrass,[2]; 250 g ai/ha,95
same,Plant response rating: Russian Thistle,[3]; 31 g ai/ha,15
same,Plant response rating: Russian Thistle,[3]; 62 g ai/ha,25
same,Plant response rating: Russian Thistle,[3]; 125 g ai/ha,60
same,Plant response rating: Russian Thistle,[3]; 250 g ai/ha,70
same,Plant response rating: Bluegrass,[4]; 31 g ai/ha,25
same,Plant response rating: Bluegrass,[4]; 62 g ai/ha,65
same,Plant response rating: Bluegrass,[4]; 125 g ai/ha,70
same,Plant response rating: Bluegrass,[4]; 250 g ai/ha,85
same,"Plant response rating: Foxtail, Green",[5]; 31 g ai/ha,95
same,"Plant response rating: Foxtail, Green",[5]; 62 g ai/ha,98
same,"Plant response rating: Foxtail, Green",[5]; 125 g ai/ha,98
same,"Plant response rating: Foxtail, Green",[5]; 250 g ai/ha,98
same,Plant response rating: Chickweed,[6]; 31 g ai/ha,65
same,Plant response rating: Chickweed,[6]; 62 g ai/ha,95
same,Plant response rating: Chickweed,[6]; 125 g ai/ha,95
same,Plant response rating: Chickweed,[6]; 250 g ai/ha,95
same,"Plant response rating: Wheat, Winter",[7]; 31 g ai/ha,5
same,"Plant response rating: Wheat, Winter",[7]; 62 g ai/ha,20
same,"Plant response rating: Wheat, Winter",[7]; 125 g ai/ha,20
same,"Plant response rating: Wheat, Winter",[7]; 250 g ai/ha,40
same,"Plant response rating: Oat, Wild",[8]; 31 g ai/ha,25
same,"Plant response rating: Oat, Wild",[8]; 62 g ai/ha,30
same,"Plant response rating: Oat, Wild",[8]; 125 g ai/ha,55
same,"Plant response rating: Oat, Wild",[8]; 250 g ai/ha,60
same,"Plant response rating: Mustard, Wild",[9]; 31 g ai/ha,10
same,"Plant response rating: Mustard, Wild",[9]; 62 g ai/ha,15
same,"Plant response rating: Mustard, Wild",[9]; 125 g ai/ha,85
same,"Plant response rating: Mustard, Wild",[9]; 250 g ai/ha,85
same,Plant response rating: Chamomile,[10]; 31 g ai/ha,20
same,Plant response rating: Chamomile,[10]; 62 g ai/ha,80
same,Plant response rating: Chamomile,[10]; 125 g ai/ha,85
same,Plant response rating: Chamomile,[10]; 250 g ai/ha,100
same,Plant response rating: Field Poppy,[11]; 31 g ai/ha,80
same,Plant response rating: Field Poppy,[11]; 62 g ai/ha,80
same,Plant response rating: Field Poppy,[11]; 125 g ai/ha,85
same,Plant response rating: Field Poppy,[11]; 250 g ai/ha,100
same,Plant response rating: Galium,[12]; 31 g ai/ha,0
same,Plant response rating: Galium,[12]; 62 g ai/ha,5
same,Plant response rating: Galium,[12]; 125 g ai/ha,15
same,Plant response rating: Galium,[12]; 250 g ai/ha,80
same,Plant response rating: Speedwell,[13]; 31 g ai/ha,95
same,Plant response rating: Speedwell,[13]; 62 g ai/ha,100
same,Plant response rating: Speedwell,[13]; 125 g ai/ha,100
same,Plant response rating: Speedwell,[13]; 250 g ai/ha,90
same,Plant response rating: Canarygrass,[14]; 31 g ai/ha,25
same,Plant response rating: Canarygrass,[14]; 62 g ai/ha,70
same,Plant response rating: Canarygrass,[14]; 125 g ai/ha,85
same,Plant response rating: Canarygrass,[14]; 250 g ai/ha,85
same,Plant response rating: Deadnettle,[15]; 31 g ai/ha,25
same,Plant response rating: Deadnettle,[15]; 62 g ai/ha,65
same,Plant response rating: Deadnettle,[15]; 125 g ai/ha,75
same,Plant response rating: Deadnettle,[15]; 250 g ai/ha,75
same,"Plant response rating: Ryegrass, Italian",[16]; 31 g ai/ha,0
same,"Plant response rating: Ryegrass, Italian",[16]; 62 g ai/ha,15
same,"Plant response rating: Ryegrass, Italian",[16]; 125 g ai/ha,40
same,"Plant response rating: Ryegrass, Italian",[16]; 250 g ai/ha,65
same,Plant response rating: Lambsquarters,[17]; 31 g ai/ha,55
same,Plant response rating: Lambsquarters,[17]; 62 g ai/ha,60
same,Plant response rating: Lambsquarters,[17]; 125 g ai/ha,80
same,Plant response rating: Lambsquarters,[17]; 250 g ai/ha,95
same,Plant response rating: Kochia,Kochia (Kochia scoparia); 31 g ai/ha,25
same,Plant response rating: Kochia,Kochia (Kochia scoparia); 62 g ai/ha,75
same,Plant response rating: Kochia,Kochia (Kochia scoparia); 125 g ai/ha,95
same,Plant response rating: Kochia,Kochia (Kochia scoparia); 250 g ai/ha,95
same,"Plant response rating: Buckwheat, Wild",[18]; 31 g ai/ha,0
same,"Plant response rating: Buckwheat, Wild",[18]; 62 g ai/ha,10
same,"Plant response rating: Buckwheat, Wild",[18]; 125 g ai/ha,15
same,"Plant response rating: Buckwheat, Wild",[18]; 250 g ai/ha,45
same,Plant response rating: Oilseed Rape,[19]; 31 g ai/ha,15
same,Plant response rating: Oilseed Rape,[19]; 62 g ai/ha,20
same,Plant response rating: Oilseed Rape,[19]; 125 g ai/ha,25
same,Plant response rating: Oilseed Rape,[19]; 250 g ai/ha,75
same,"Plant response rating: Bromegrass, Downy",[20]; 31 g ai/ha,15
same,"Plant response rating: Bromegrass, Downy",[20]; 62 g ai/ha,30
same,"Plant response rating: Bromegrass, Downy",[20]; 125 g ai/ha,40
same,"Plant response rating: Bromegrass, Downy",[20]; 250 g ai/ha,65
same,"Plant response rating: Radish, Wild",[21]; 31 g ai/ha,0
same,"Plant response rating: Radish, Wild",[21]; 62 g ai/ha,15
same,"Plant response rating: Radish, Wild",[21]; 125 g ai/ha,50
same,"Plant response rating: Radish, Wild",[21]; 250 g ai/ha,85
